What was measured:
Conditions in all cases: 48 h
NOMO1 [1] = assay: AUC of viability dose-response curve (% viability x log10 dose units); higher = less sensitive
Outline: (§1)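 Area under the curve was integrated by trapezoidal rule from a log-logistic fit of normalised viability, with curves exceeding full viability scaled and quality-control failures removed. The fit had four parameters over log10 doses. Viability came from CellTiter-Glo One luminescence, normalised per plate to DMSO and cell-free wells, after leukemia cells adapted to each medium (500 or 1000 cells/well, 1536-well plates) were exposed to library compounds in DMSO for 48 h at 37°C. The 11 threefold doses ran from 47 μM to 0.79 nM.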

SEM cells [2] = assay: as above
Outline: as §1

P12-Ichikawa [3] = assay: as above
Outline: as §1

NOMO1 [4] = assay: cell viability relative to DMSO control; higher = less cytotoxic
Outline: (§2)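 In 1536-well plates, 5 μl of leukemia cells were seeded per well: 500 cells/well for NOMO1 or SEM and 1000 cells/well for P12-Ichikawa. Each line had first been adapted for at least four passages in each medium. Library compounds in DMSO were pin-dosed at 11 threefold concentrations between 47 μM and 0.79 nM, and CellTiter-Glo One luminescence was read after 48 h at 37°C. Viability is a per-plate percentage relative to DMSO wells, with cell-free wells as background.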

SEM cells [5] = assay: as above
Outline: as §2

P12-Ichikawa [6] = assay: as above
Outline: as §2

O=C(O[C@H]1C[C@H]2CC[C@@H](C1)[N+]21CCCC1)C(O)(c1ccccc1)c1ccccc1.[Cl-]
AUC of viability dose-response curve
Conditions	NOMO1 [1]	P12-Ichikawa [3]	SEM cells [2]
HPLM + 10% dialyzed FBS	472	461	460
RPMI 5 mM glucose + 10% FBS	462	464	437
RPMI 5 mM glucose + 10% dialyzed FBS	467	470	449

cell viability [%]
Conditions	NOMO1 [4]	P12-Ichikawa [6]	SEM cells [5]
HPLM + 10% dialyzed FBS, 0.000781 µM	95.5	104	97.4
HPLM + 10% dialyzed FBS, 0.00234 µM	116	104	96.2
HPLM + 10% dialyzed FBS, 0.00702 µM	121	112	104
HPLM + 10% dialyzed FBS, 0.0211 µM	107	106	103
HPLM + 10% dialyzed FBS, 0.0632 µM	124	117	115
HPLM + 10% dialyzed FBS, 0.19 µM	116	105	113
HPLM + 10% dialyzed FBS, 0.569 µM	116	110	115
HPLM + 10% dialyzed FBS, 1.71 µM	116	116	115
HPLM + 10% dialyzed FBS, 5.12 µM	116	107	118
HPLM + 10% dialyzed FBS, 15.4 µM	110	116	113
HPLM + 10% dialyzed FBS, 46.1 µM	106	110	98.2
RPMI 5 mM glucose + 10% FBS, 0.000781 µM	89.4	107	90
RPMI 5 mM glucose + 10% FBS, 0.00234 µM	95.7	104	98.1
RPMI 5 mM glucose + 10% FBS, 0.00702 µM	99.6	113	88.4
RPMI 5 mM glucose + 10% FBS, 0.0211 µM	89.9	116	98.9
RPMI 5 mM glucose + 10% FBS, 0.0632 µM	92.3	120	103
RPMI 5 mM glucose + 10% FBS, 0.19 µM	98.3	127	95.8
RPMI 5 mM glucose + 10% FBS, 0.569 µM	96.8	127	97.9
RPMI 5 mM glucose + 10% FBS, 1.71 µM	105	106	127
RPMI 5 mM glucose + 10% FBS, 5.12 µM	100	113	109
RPMI 5 mM glucose + 10% FBS, 15.4 µM	105	115	106
RPMI 5 mM glucose + 10% FBS, 46.1 µM	92.1	115	99.9
RPMI 5 mM glucose + 10% dialyzed FBS, 0.000781 µM	97.6	99.5	81
RPMI 5 mM glucose + 10% dialyzed FBS, 0.00234 µM	98.8	99.9	101
RPMI 5 mM glucose + 10% dialyzed FBS, 0.00702 µM	111	105	98.5
RPMI 5 mM glucose + 10% dialyzed FBS, 0.0211 µM	109	106	108
RPMI 5 mM glucose + 10% dialyzed FBS, 0.0632 µM	98.1	117	132
RPMI 5 mM glucose + 10% dialyzed FBS, 0.19 µM	102	110	122
RPMI 5 mM glucose + 10% dialyzed FBS, 0.569 µM	94.8	104	115
RPMI 5 mM glucose + 10% dialyzed FBS, 1.71 µM	95	113	117
RPMI 5 mM glucose + 10% dialyzed FBS, 5.12 µM	111	107	119
RPMI 5 mM glucose + 10% dialyzed FBS, 15.4 µM	106	103	117
RPMI 5 mM glucose + 10% dialyzed FBS, 46.1 µM	108	103	122

C/C=C1\C2C=C(C)CC1(N)c1ccc(=O)[nH]c1C2 (stereo unspecified)
AUC of viability dose-response curve
Conditions	NOMO1 [1]	P12-Ichikawa [3]	SEM cells [2]
HPLM + 10% dialyzed FBS	463	471	442
RPMI 5 mM glucose + 10% FBS	467	447	458
RPMI 5 mM glucose + 10% dialyzed FBS	465	442	463

cell viability [%]
Conditions	NOMO1 [4]	P12-Ichikawa [6]	SEM cells [5]
HPLM + 10% dialyzed FBS, 0.000781 µM	107	102	103
HPLM + 10% dialyzed FBS, 0.00234 µM	117	108	108
HPLM + 10% dialyzed FBS, 0.00702 µM	113	107	120
HPLM + 10% dialyzed FBS, 0.0211 µM	114	107	109
HPLM + 10% dialyzed FBS, 0.0632 µM	109	109	28.9
HPLM + 10% dialyzed FBS, 0.19 µM	104	109	94.2
HPLM + 10% dialyzed FBS, 0.569 µM	117	107	98
HPLM + 10% dialyzed FBS, 1.71 µM	106	104	106
HPLM + 10% dialyzed FBS, 5.12 µM	110	96.3	102
HPLM + 10% dialyzed FBS, 15.4 µM	95.1	106	68.1
HPLM + 10% dialyzed FBS, 46.1 µM	79.4	79.2	98.7
RPMI 5 mM glucose + 10% FBS, 0.000781 µM	94.6	105	105
RPMI 5 mM glucose + 10% FBS, 0.00234 µM	96.4	110	113
RPMI 5 mM glucose + 10% FBS, 0.00702 µM	99.2	112	109
RPMI 5 mM glucose + 10% FBS, 0.0211 µM	115	106	99.6
RPMI 5 mM glucose + 10% FBS, 0.0632 µM	96.3	113	18.2
RPMI 5 mM glucose + 10% FBS, 0.19 µM	93.7	101	103
RPMI 5 mM glucose + 10% FBS, 0.569 µM	102	98.3	106
RPMI 5 mM glucose + 10% FBS, 1.71 µM	105	91.2	114
RPMI 5 mM glucose + 10% FBS, 5.12 µM	102	98.9	104
RPMI 5 mM glucose + 10% FBS, 15.4 µM	91	98.7	88
RPMI 5 mM glucose + 10% FBS, 46.1 µM	90.8	92.8	96.4
RPMI 5 mM glucose + 10% dialyzed FBS, 0.000781 µM	90.4	110	103
RPMI 5 mM glucose + 10% dialyzed FBS, 0.00234 µM	103	98	106
RPMI 5 mM glucose + 10% dialyzed FBS, 0.00702 µM	96.7	108	114
RPMI 5 mM glucose + 10% dialyzed FBS, 0.0211 µM	103	102	113
RPMI 5 mM glucose + 10% dialyzed FBS, 0.0632 µM	108	94.9	39.9
RPMI 5 mM glucose + 10% dialyzed FBS, 0.19 µM	96.1	107	115
RPMI 5 mM glucose + 10% dialyzed FBS, 0.569 µM	94.1	98.4	114
RPMI 5 mM glucose + 10% dialyzed FBS, 1.71 µM	99.9	97.1	108
RPMI 5 mM glucose + 10% dialyzed FBS, 5.12 µM	95	88.5	104
RPMI 5 mM glucose + 10% dialyzed FBS, 15.4 µM	98.8	95.2	85.6
RPMI 5 mM glucose + 10% dialyzed FBS, 46.1 µM	81	90.9	98.2

— the supplement of paper PMC11451515
